Experimental data from article PMC11044166, “Synthesis, DFT Calculations, In Silico Studies, and Antimicrobial Evaluation of Benzimidazole-Thiadiazole Derivatives” (ACS Omega, 2024).
Values after ≈ are worked out from the molar mass of the structure shown. Where two headings read alike, the source gives them in different places.

Experiments:
C. krusei (ATCC 6258) = experiment: Antifungal microdilution MIC; format: cell-based; settings: Pichia kudriavzevii, ATCC6258
Experimental: (§1) The antifungal and antibacterial activities of the synthesized compounds (5a–i) were evaluated in vitro against E. coli (ATCC 25922), S. marcescens (ATCC 8100), K. pneumoniae (ATCC 13883), P. aeruginosa (ATCC 27853), E. faecalis (ATCC 2942), B. subtilis, S. aureus (ATCC 29213), S. epidermidis (ATCC 12228), C. albicans (ATCC 24433), C. krusei (ATCC 6258), and C. parapsilosis (ATCC 22019). The final synthesized compounds were evaluated as antibacterial and antifungal references, in comparison to azithromycin, voriconazole, and fluconazole. Tables 1 and 2 provide a summary of the antimicrobial activity test results and the minimum inhibitory concentrations (MICs) of the compounds (5a–i).
(§2) The antimicrobial activity of the final compounds (5a–i) was screened against eight species of pathogenic bacteria and […] (E. coli (ATCC 25922), S. marcescens (ATCC 8100), K. pneumonia (ATCC 13883), P. aeruginosa (ATCC 27853), E. faecalis (ATCC 2942), B. subtilis (NRRL NRS 744), S. aureus (ATCC 29213), S. epidermidis (ATCC 12228), C. albicans (ATCC 24433), C. glabrata (ATCC 90030), C. krusei (ATCC 6258), and C. parapsilosis (ATCC 22 019)) according to the microdilution standard methods CLSI M07-A9 (2012) and NCCLS M27-A2 (2002), as described in the previous study.[25],[26]

[1] = tested on: C. parapsilosis (ATCC 22019); experiment: Antifungal microdilution MIC; format: cell-based; settings: Lodderomyces parapsilosis, ATCC22019
Experimental: as §1, §2

C. albicans (ATCC 24433) = experiment: Antifungal microdilution MIC; format: cell-based; settings: Candida albicans, ATCC24433
Experimental: as §1, §2

[2] = tested on: S. epidermidis (ATCC 12228); experiment: Antibacterial microdilution MIC; format: cell-based; settings: Staphylococcus epidermidis, ATCC12228
Experimental: as §1, §2

B. subtilis = experiment: Antibacterial microdilution MIC; format: cell-based; settings: Bacillus subtilis
Experimental: as §1, §2

E. faecalis (ATCC 2942) = experiment: Antibacterial microdilution MIC; format: cell-based; settings: Enterococcus faecalis, ATCC2942
Experimental: as §1, §2

E. coli (ATCC 25922) = experiment: Antibacterial microdilution MIC; format: cell-based; settings: Escherichia coli, ATCC25922
Experimental: as §1, §2

[3] = tested on: K. pneumoniae (ATCC 13883); experiment: Antibacterial microdilution MIC; format: cell-based; settings: Klebsiella pneumoniae, ATCC13883
Experimental: as §1, §2

[4] = tested on: P. aeruginosa (ATCC 27853); experiment: Antibacterial microdilution MIC; format: cell-based; settings: Pseudomonas aeruginosa, ATCC27853
Experimental: as §1, §2

[5] = tested on: S. marcescens (ATCC 8100); experiment: Antibacterial microdilution MIC; format: cell-based; settings: Serratia marcescens, ATCC8100
Experimental: as §1, §2

S. aureus (ATCC 29213) = experiment: Antibacterial microdilution MIC; format: cell-based; settings: Staphylococcus aureus, ATCC29213
Experimental: as §1, §2

[6] = tested on: L929 fibroblast cell line; experiment: Cytotoxicity MTT assay on healthy cells; format: cell-based; settings: L929 healthy mouse fibroblast cells
Experimental: The effect of the compounds between 5a–i on the viability of the L929 cell line was analyzed by MTT assay. The MTT method was performed as previously described.[27]

[7] = C. krusei (ATCC 6258), read-out: MIC
[8] = C. parapsilosis (ATCC 22019), read-out: MIC
[9] = C. albicans (ATCC 24433), read-out: MIC
[10] = H: S. epidermidis (ATCC 12228), Gram-positive, read-out: MIC
[11] = F: B. subtilis, Gram-positive, read-out: MIC
[12] = E: E. faecalis (ATCC 2942), Gram-positive, read-out: MIC
[13] = A: E. coli (ATCC 25922), Gram-negative, read-out: MIC
[14] = C: K. pneumoniae (ATCC 13883), Gram-negative, read-out: MIC
[15] = D: P. aeruginosa (ATCC 27853), Gram-negative, read-out: MIC
[16] = B: S. marcescens (ATCC 8100), Gram-negative, read-out: MIC
[17] = G: S. aureus (ATCC 29213), Gram-positive, read-out: MIC

| Compound | MIC (C. krusei (ATCC 6258); [7]) | MIC [1, 8] | MIC (C. albicans (ATCC 24433); [9]) | melting point | MIC [2, 10] | MIC (B. subtilis; [11]) | MIC (E. faecalis (ATCC 2942); [12]) | MIC (E. coli (ATCC 25922); [13]) | MIC [3, 14] | MIC [4, 15] | MIC [5, 16] | MIC (S. aureus (ATCC 29213); [17]) | IC50 [6] | further results |
| --- | --- | --- | --- | --- | --- | --- | --- | --- | --- | --- | --- | --- | --- | --- |
| OC(Cn1cncn1)(Cn1cncn1)c1ccc(F)cc1F [fluconazole, reference compound] | 7.81 µg/mL (≈ 25.5 µM) | 7.81 µg/mL (≈ 25.5 µM) | 7.81 µg/mL (≈ 25.5 µM) | – | – | – | – | – | – | – | – | – | – | – |
| Clc1ccccc1Nc1nnc(-c2ccc(-c3nc4ccccc4[nH]3)cc2)s1 [Compound 5d, N-(2-Chlorophenyl)-5-(4-(1H-Benzo[d]imidazole-2-Yl)phenyl)-1,3,4-Thiadiazole-2-Amine] | 125 µg/mL (≈ 309 µM) | 125 µg/mL (≈ 309 µM) | 7.81 µg/mL (≈ 19.3 µM) | 294.8 °C | 31.2 µg/mL (≈ 77.4 µM) | 125 µg/mL (≈ 309 µM) | 7.81 µg/mL (≈ 19.3 µM) | 125 µg/mL (≈ 309 µM) | 125 µg/mL (≈ 309 µM) | 125 µg/mL (≈ 309 µM) | 62.5 µg/mL (≈ 155 µM) | 7.81 µg/mL (≈ 19.3 µM) | 197 ± 14.7 µM | – |
| CCNc1nnc(-c2ccc(-c3nc4ccccc4[nH]3)cc2)s1 [Compound 5b, N-Ethyl-5-(4-(1H-Benzo[d]imidazole-2-Yl)phenyl)-1,3,4-Thiadiazole-2-Amine] | 31.2 µg/mL (≈ 97.2 µM) | 15.6 µg/mL (≈ 48.6 µM) | 7.81 µg/mL (≈ 24.3 µM) | 321.6 °C | 31.2 µg/mL (≈ 97.2 µM) | 125 µg/mL (≈ 389 µM) | 3.9 µg/mL (≈ 12.1 µM) | 62.5 µg/mL (≈ 194 µM) | 62.5 µg/mL (≈ 194 µM) | 62.5 µg/mL (≈ 194 µM) | 62.5 µg/mL (≈ 194 µM) | 31.2 µg/mL (≈ 97.2 µM) | 119 ± 9.64 µM | – |
| ClCCNc1nnc(-c2ccc(-c3nc4ccccc4[nH]3)cc2)s1 [Compound 5c, N-(2-Chloroethyl)-5-(4-(1H-Benzo[d]imidazole-2-Yl)phenyl)-1,3,4-Thiadiazole-2-Amine] | – | – | – | 191.2 °C | – | – | – | – | – | – | – | – | – | MIC [2]: 31.2 µg/mL (≈ 87.8 µM); MIC (B. subtilis): 62.5 µg/mL (≈ 176 µM); MIC (E. faecalis (ATCC 2942)): 15.6 µg/mL (≈ 43.9 µM); MIC (E. coli (ATCC 25922)): 62.5 µg/mL (≈ 176 µM); MIC [3]: 62.5 µg/mL (≈ 176 µM); MIC [4]: 125 µg/mL (≈ 351 µM); MIC [5]: 62.5 µg/mL (≈ 176 µM); MIC (S. aureus (ATCC 29213)): 31.2 µg/mL (≈ 87.8 µM); MIC (C. krusei (ATCC 6258)): 125 µg/mL (≈ 351 µM); MIC [1]: 125 µg/mL (≈ 351 µM); MIC (C. albicans (ATCC 24433)): 31.2 µg/mL (≈ 87.8 µM) |
| C[C@@H](c1ncncc1F)[C@](O)(Cn1cncn1)c1ccc(F)cc1F [voriconazole, reference compound] | 3.9 µg/mL (≈ 11.2 µM) | 3.9 µg/mL (≈ 11.2 µM) | 3.9 µg/mL (≈ 11.2 µM) | – | – | – | – | – | – | – | – | – | – | – |
| CCCNc1nnc(-c2ccc(-c3nc4ccccc4[nH]3)cc2)s1 [Compound 5g, N-Propyl-5-(4-(1H-Benzo[d]imidazole-2-Yl)phenyl)-1,3,4-Thiadiazole-2-Amine] | 125 µg/mL (≈ 373 µM) | 125 µg/mL (≈ 373 µM) | 7.81 µg/mL (≈ 23.3 µM) | 275.2 °C | 31.2 µg/mL (≈ 93.2 µM) | 125 µg/mL (≈ 373 µM) | 15.6 µg/mL (≈ 46.6 µM) | 125 µg/mL (≈ 373 µM) | 125 µg/mL (≈ 373 µM) | 125 µg/mL (≈ 373 µM) | 250 µg/mL (≈ 745 µM) | 31.2 µg/mL (≈ 93.2 µM) | – | – |
| CNc1nnc(-c2ccc(-c3nc4ccccc4[nH]3)cc2)s1 [Compound 5a, N-Methyl-5-(4-(1H-Benzo[d]imidazole-2-Yl)phenyl)-1,3,4-Thiadiazole-2-Amine] | 125 µg/mL (≈ 407 µM) | 125 µg/mL (≈ 407 µM) | 31.2 µg/mL (≈ 102 µM) | 325.6 °C | 7.81 µg/mL (≈ 25.4 µM) | 125 µg/mL (≈ 407 µM) | 3.9 µg/mL (≈ 12.7 µM) | 250 µg/mL (≈ 813 µM) | 125 µg/mL (≈ 407 µM) | 62.5 µg/mL (≈ 203 µM) | 62.5 µg/mL (≈ 203 µM) | 7.81 µg/mL (≈ 25.4 µM) | 152 ± 3.64 µM | – |
| CC(C)CNc1nnc(-c2ccc(-c3nc4ccccc4[nH]3)cc2)s1 [Compound 5i, N-Isobutyl-5-(4-(1H-Benzo[d]imidazole-2-Yl)phenyl)-1,3,4-Thiadiazole-2-Amine] | 125 µg/mL (≈ 358 µM) | 125 µg/mL (≈ 358 µM) | 31.2 µg/mL (≈ 89.4 µM) | 315.6 °C | 62.5 µg/mL (≈ 179 µM) | 125 µg/mL (≈ 358 µM) | 15.6 µg/mL (≈ 44.7 µM) | 125 µg/mL (≈ 358 µM) | 62.5 µg/mL (≈ 179 µM) | 31.2 µg/mL (≈ 89.4 µM) | 62.5 µg/mL (≈ 179 µM) | 62.5 µg/mL (≈ 179 µM) | – | – |
| c1ccc2[nH]c(-c3ccc(-c4nnc(NC5CCCCC5)s4)cc3)nc2c1 [Compound 5e, N-Cyclohexyl-5-(4-(1H-Benzo[d]imidazole-2-Yl)phenyl)-1,3,4-Thiadiazole-2-Amine] | 125 µg/mL (≈ 333 µM) | 125 µg/mL (≈ 333 µM) | 7.81 µg/mL (≈ 20.8 µM) | 276.5 °C | 7.81 µg/mL (≈ 20.8 µM) | 250 µg/mL (≈ 666 µM) | 15.6 µg/mL (≈ 41.6 µM) | 125 µg/mL (≈ 333 µM) | 125 µg/mL (≈ 333 µM) | 125 µg/mL (≈ 333 µM) | 125 µg/mL (≈ 333 µM) | 125 µg/mL (≈ 333 µM) | 102 ± 12 µM | – |
| CC[C@H]1OC(=O)[C@H](C)[C@@H](O[C@H]2C[C@@](C)(OC)[C@@H](O)[C@H](C)O2)[C@H](C)[C@@H](O[C@@H]2O[C@H](C)C[C@H](N(C)C)[C@H]2O)[C@](C)(O)C[C@@H](C)CN(C)[C@H](C)[C@@H](O)[C@]1(C)O [azithromycin, reference compound] | – | – | – | – | < 0.97 µg/mL | < 0.97 µg/mL | < 0.97 µg/mL | < 0.97 µg/mL | < 0.97 µg/mL | < 0.97 µg/mL | < 0.97 µg/mL | < 0.97 µg/mL | – | – |
| COc1ccc(Nc2nnc(-c3ccc(-c4nc5ccccc5[nH]4)cc3)s2)cc1 [Compound 5h, N-(4-Methoxyphenyl)-5-(4-(1H-Benzo[d]imidazole-2-Yl)phenyl)-1,3,4-Thiadiazole-2-Amine] | 125 µg/mL (≈ 313 µM) | 125 µg/mL (≈ 313 µM) | 3.9 µg/mL (≈ 9.76 µM) | 276.7 °C | 31.2 µg/mL (≈ 78.2 µM) | 125 µg/mL (≈ 313 µM) | 3.9 µg/mL (≈ 9.76 µM) | 31.2 µg/mL (≈ 78.2 µM) | 62.5 µg/mL (≈ 156 µM) | 31.2 µg/mL (≈ 78.2 µM) | 62.5 µg/mL (≈ 156 µM) | 31.2 µg/mL (≈ 78.2 µM) | 76 ± 9.4 µM | – |
| CC(C)Nc1nnc(-c2ccc(-c3nc4ccccc4[nH]3)cc2)s1 [Compound 5f, N-Isopropyl-5-(4-(1H-Benzo[d]imidazole-2-Yl)phenyl)-1,3,4-Thiadiazole-2-Amine] | 125 µg/mL (≈ 373 µM) | 125 µg/mL (≈ 373 µM) | 3.9 µg/mL (≈ 11.6 µM) | 324.7 °C | 3.9 µg/mL (≈ 11.6 µM) | 125 µg/mL (≈ 373 µM) | 3.9 µg/mL (≈ 11.6 µM) | 125 µg/mL (≈ 373 µM) | 125 µg/mL (≈ 373 µM) | 125 µg/mL (≈ 373 µM) | 125 µg/mL (≈ 373 µM) | 62.5 µg/mL (≈ 186 µM) | 175 ± 3.02 µM | – |
